“And” between values parts separate entries of the source, which are not always exact repeats. Equal values may be shown once.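 Dose response: 5 concentrations. Exposure: 48 h. Format: 96-well plates. Endpoint: linear interpolation; highest concentration if not reached. Abbreviation: GI50, concentration required for 50% inhibition of growth. TGI is the concentration that stops growth completely.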 Residues, ends and D or L forms follow the SMILES beside them. *: point of attachment. Cbz = O=C(OCc1ccccc1)*
Assays:
Test in all cases: NCI anticancer screen, dose series, 48 h
[1] = tested on: A549 NSCLC
[2] = tested on: SF-268 CNS
[3] = tested on: KM20L2 colon
[4] = tested on: SW-620 colon
[5] = tested on: UO-31 renal
[6] = tested on: BT-549 breast
[7] = tested on: T-47D breast
[8] = tested on: NCI/ADR-RES ovarian
[9] = tested on: HS 578T breast

## O=C1C(=O)N(c2ccc(Cl)cc2)C(=O)C(=Nc2cccc3c(=O)[nH][nH]c(=O)c23)C1c1nc2ccccc2o1 (centres undefined)
[1]
  TGI: > 100 µM
[2]
  TGI: > 100 µM
[3]
  TGI: > 100 µM
[4]
  TGI: > 100 µM
[5]
  TGI: > 100 µM

## Cc1ccc(S(=O)(=O)OCCOCCOCCOCCOCCOS(=O)(=O)c2ccc(C)cc2)cc1
[1]
  TGI: > 100 µM
[2]
  TGI: > 100 µM
[3]
  TGI: > 100 µM
[4]
  TGI: > 100 µM
[5]
  TGI: > 100 µM

## C=CC(=O)Nc1cccc(Oc2nc(Nc3ccc(N4CCN(C)CC4)cc3OC)ncc2Cl)c1
[1]
  GI50: 1.46 µM
  TGI: 3.33 µM
[6]
  GI50: 1.99 µM
  TGI: 4.58 µM
[2]
  GI50: 2.37 µM
  TGI: 9.24 µM
[7]
  GI50: 2.87 µM
  TGI: 15.5 µM
[4]
  GI50: 1.47 µM
  TGI: 2.96 µM
[5]
  GI50: 1.03 µM
  TGI: 2.32 µM
[8]
  GI50: 1.88 µM
  TGI: 5.69 µM
[9]
  GI50: 1.86 µM
  TGI: 5.39 µM

## CC(C)C(=O)c1c(C(F)(F)F)n([O-])c2ccccc2[n+]1=O
[1]
  GI50: 2.46 µM
  TGI: 6.79 µM
[6]
  GI50: 1.06 µM
  TGI: 3.08 µM
[2]
  GI50: 1.03 µM
  TGI: 4.66 µM
[7]
  GI50: 0.827 µM
  TGI: 3.49 µM
[4]
  GI50: 4.34 µM
  TGI: 17.5 µM
[5]
  GI50: 1.18 µM
  TGI: 3.11 µM
[8]
  GI50: 1.74 µM
  TGI: 5.46 µM
[9]
  GI50: 5.4 µM
  TGI: 18.1 µM

## Cc1ccccc1C(C(=O)NC1CCCCC1)N(C(=O)CNc1ncccc1F)c1cccc(F)c1 (centres undefined)
[1]
  GI50: > 100 µM
  TGI: > 100 µM
[6]
  GI50: > 58.4 µM
  TGI: > 100 µM
[2]
  GI50: 48.7 µM
  TGI: > 100 µM
[7]
  GI50: 60.8 µM
  TGI: > 100 µM
[4]
  GI50: > 100 µM
  TGI: > 100 µM
[5]
  GI50: > 100 µM
  TGI: > 100 µM
[8]
  GI50: > 100 µM
  TGI: > 100 µM
[9]
  GI50: 27.2 µM
  TGI: > 100 µM

## CCCN(CCC)c1ccc(C=O)c(C)c1
[1]
  GI50: 70.7 µM
  TGI: > 100 µM
[6]
  GI50: 26.9 µM
  TGI: > 100 µM
[2]
  GI50: 68 µM
  TGI: > 100 µM
[7]
  GI50: 20.8 µM
  TGI: 98.9 µM
[4]
  GI50: 45.9 µM
  TGI: > 100 µM
[5]
  GI50: 21.5 µM
  TGI: > 100 µM
[8]
  GI50: 36.1 µM
  TGI: > 100 µM
[9]
  GI50: 39.7 µM
  TGI: > 100 µM

## Cc1sc2c(c1C)C(c1ccc(Cl)cc1)=N[C@@H](CC(=O)NCCCN1CCN(C)CC1)c1nnc(C)n1-2
[1]
  GI50: 3.22 µM
  TGI: > 100 µM
[6]
  GI50: 3.51 µM
  TGI: > 100 µM
[2]
  GI50: 30.3 µM
  TGI: > 100 µM
[7]
  GI50: 0.287 µM
  TGI: > 100 µM
[4]
  GI50: > 100 µM
  TGI: > 100 µM
[5]
  GI50: 3.83 µM
  TGI: > 100 µM
[8]
  GI50: > 100 µM
  TGI: > 100 µM
[9]
  GI50: 0.216 µM
  TGI: > 22.7 µM

## C=CCOC(=O)Nc1cccn([C@H](CC(C)C)C(=O)NCCC(C)C)c1=O
[1]
  GI50: 78.5 µM
  TGI: > 100 µM
[6]
  GI50: > 100 µM
  TGI: > 100 µM
[2]
  GI50: 84.8 µM
  TGI: > 100 µM
[7]
  GI50: 68.2 µM
  TGI: > 100 µM
[4]
  GI50: > 100 µM
  TGI: > 100 µM
[5]
  GI50: 27.5 µM
  TGI: > 100 µM
[8]
  GI50: 57.9 µM
  TGI: > 100 µM
[9]
  GI50: 87.8 µM
  TGI: > 100 µM

## COc1cc2c(c(OC)c1OC)-c1c(c3ccc([N+](=O)[O-])cc3c(=O)n1CCCN)C2=O
[1]
  GI50: 1.32 µM
  TGI: 3.06 µM
[6]
  GI50: 14.4 µM
  TGI: 46.9 µM
[2]
  GI50: 13.2 µM
  TGI: 34.6 µM
[7]
  GI50: 1.88 µM
  TGI: 7.85 µM
[4]
  GI50: 1.03 µM
  TGI: 2.35 µM
[5]
  GI50: 0.892 µM
  TGI: 1.68 µM
[8]
  GI50: 5.49 µM
  TGI: 15.6 µM
[9]
  GI50: 11.1 µM
  TGI: 31.4 µM

## Cn1cc(C2=C(c3cn(CCCCCO)c4ccccc34)C(=O)NC2=O)c2ccccc21
[1]
  GI50: 6.19 µM
  TGI: 24 µM
[6]
  GI50: 4 µM
  TGI: 10.9 µM
[2]
  GI50: 6.34 µM
  TGI: 19.1 µM
[7]
  GI50: 6.44 µM
  TGI: 16 µM
[4]
  GI50: 3.17 µM
  TGI: > 25 µM
[5]
  GI50: 4.11 µM
  TGI: 12.9 µM
[8]
  GI50: 7.04 µM
  TGI: > 22.5 µM
[9]
  GI50: 3.74 µM
  TGI: 17.5 µM

## COc1cc(/C=C/C(=O)c2c(-c3ccc(F)cc3)nc3sc(C)nn23)cc(OC)c1OC
[1]
  GI50: 2.53 µM
  TGI: 8.63 µM
[6]
  GI50: 2.55 µM
  TGI: 7.09 µM
[2]
  GI50: 2.74 µM
  TGI: 8.96 µM
[7]
  GI50: 2.09 µM
  TGI: 7.57 µM
[4]
  GI50: 2.02 µM
  TGI: 4.51 µM
[5]
  GI50: 1.95 µM
  TGI: 4.94 µM
[8]
  GI50: 2.57 µM
  TGI: 9.91 µM
[9]
  GI50: 5.39 µM
  TGI: > 100 µM

## O=c1cccc2n1CC1CNC[C@H]2C1
[1]
  TGI: > 100 µM
[6]
  TGI: > 100 µM
[2]
  TGI: > 100 µM
[7]
  TGI: > 100 µM
[4]
  TGI: > 100 µM
[5]
  TGI: > 100 µM
[8]
  TGI: > 100 µM
[9]
  TGI: > 100 µM

## CC(=O)OCCCC#CC#Cc1cccc(=O)o1
[1]
  GI50: 20.4 µM
  TGI: 42.9 µM
[6]
  GI50: 10.6 µM
  TGI: 26.6 µM
[2]
  GI50: 19.4 µM
  TGI: 41.1 µM
[7]
  GI50: 20 µM
  TGI: 51.1 µM
[4]
  GI50: 13.6 µM
  TGI: 37.5 µM
[5]
  GI50: 3.52 µM
  TGI: > 100 µM
[8]
  GI50: 39.6 µM
  TGI: > 100 µM
[9]
  GI50: 25.8 µM
  TGI: 56.7 µM

## C=C1C(=O)C2=CC1CCC(=O)C1(C)CCC(OC(C)=O)C(C)(C)C1CC2O (centres undefined)
[1]
  TGI: 22.4 µM
[6]
  TGI: 9.33 µM
[2]
  TGI: 38.7 µM
[7]
  TGI: 21.8 µM
[4]
  TGI: > 100 µM
[5]
  TGI: 5.38 µM
[8]
  TGI: 24.9 µM
[9]
  TGI: 20.4 µM

## NCCSC(c1ccccc1)(c1ccccc1)c1ccccc1
[1]
  GI50: 0.742 µM
  TGI: 6.03 µM
[6]
  GI50: 3.51 µM
  TGI: 14.2 µM
[2]
  GI50: 0.966 µM
  TGI: 11.2 µM
[7]
  GI50: 2.62 µM
  TGI: 8.42 µM
[4]
  GI50: 0.558 µM
  TGI: 2.48 µM
[5]
  GI50: 2.03 µM
  TGI: 12.9 µM
[8]
  GI50: 1.86 µM
  TGI: 5.71 µM
[9]
  GI50: 1.09 µM
  TGI: 5.29 µM

## CC(C)C[C@@H](C=O)NC(=O)[C@H](CC(C)C)NC(=O)[C@H](CC(C)C)NC(=O)OCc1ccccc1 (Cbz-Leu-Leu-Leu-aldehyde)
[1]
  GI50: 0.578 µM
  TGI: 12.8 µM
[6]
  GI50: 0.337 µM
  TGI: 1.25 µM
[2]
  GI50: 0.297 µM
  TGI: 1.45 µM
[7]
  GI50: 0.222 µM
  TGI: 0.598 µM
[4]
  GI50: 0.355 µM
  TGI: 2.07 µM
[5]
  GI50: 0.252 µM
  TGI: 0.943 µM
[8]
  GI50: 3.26 µM
  TGI: > 100 µM
[9]
  GI50: 0.437 µM
  TGI: > 100 µM

## CC1Cc2ccccc2N1C(=O)Cc1nc(N2CCOCC2)cc(=O)[nH]1 (centres undefined)
[1]
  GI50: 17.3 µM and 24.5 µM
  TGI: > 100 µM
[6]
  GI50: 1.37 µM and 5.58 µM
  TGI: 57.2 µM and > 94.7 µM
[2]
  GI50: 18.1 µM and 19.9 µM
  TGI: > 100 µM
[7]
  GI50: 1.6 µM and 3.73 µM
  TGI: 42.6 µM and 99.7 µM
[4]
  GI50: 27.2 µM and 72.5 µM
  TGI: > 100 µM
[5]
  GI50: 2.26 µM and 3.28 µM
  TGI: > 100 µM
[8]
  GI50: 64.5 µM and > 88.6 µM
  TGI: > 100 µM
[9]
  GI50: 1.75 µM and 4.13 µM
  TGI: 33.7 µM and 49.8 µM

— PubChem BioAssay (NCI)
